Experimental findings from patent US20190343828A1, “CAMPTOTHECIN PEPTIDE CONJUGATES” (SEATTLE GENETICS, INC., priority 2018, published 2019) are described below.

Experiment [1] has as its system B-lymphocyte cancer cells (U266). As to the kind of experiment: In vitro cytotoxicity, CellTiter-Glo 96 h, U266. To be noted: Homo sapiens, U-266, read-out: Cytotoxic potency as free drug, IC50, U266. (In ATP-based viability assays light output follows the ATP content of the culture.)
Method: (§1) In vitro potency was assessed on multiple cancer cell lines. All cell lines were authenticated by STR profiling at IDEXX Bioresearch and cultured for no more than 2 months after resuscitation. Cells cultured in log-phase growth were seeded for 24 hours in 96-well plates containing 150 μl RPMI 1640 supplemented with 20% FBS. Serial dilutions of antibody-drug conjugates in cell culture media were prepared at 4× working concentrations, and 50 μl of each dilution was added to the 96-well plates. Following addition of test articles, cells were incubated with test articles for 4 days at 37° C. After 96 hours, growth inhibition was assessed by CellTiter-Glo® (Promega, Madison, Wis.) and luminescence was measured on a plate reader.
(§2) Cell viability was determined by CellTiter-Glo staining after 96 h exposure to ADC. […] Ag1 is an antibody targeting a ubiquitous and readily internalizable antigen on cancer cells, Ag2 is cAC10 antibody targeting CD30(+) cancer cells, Ag3 is h1F6 antibody targeting CD70(+) cancer cells, Ag4 is hMEM102 antibody targeting CD48(+) cancer cells, Ag5 is h20F3 antibody targeting NTB-A expressing cancer cells, and h00 is a non-binding control antibody.
Experiment [2] deals with renal carcinoma cells (786-O). As to the kind of experiment: In vitro cytotoxicity, CellTiter-Glo 96 h, 786-O. To be noted: Homo sapiens, 786-0, read-out: Cytotoxic potency (IC50 class), 786-O.
Method: as §1
(§3) Cell viability was determined by CellTiter-Glo staining after 96 h exposure to ADC.
The test system of experiment [3] is pancreatic cancer cells (BxPC3). Put plainly: In vitro cytotoxicity, CellTiter-Glo 96 h, BxPC3. To be noted: Homo sapiens, BXPC-3, read-out: Cytotoxic potency (IC50 class), BxPC3.
Method: as §1, §3
For experiment [4], the system named is acute promyelocytic leukemia cells (HL-60). Put plainly: In vitro cytotoxicity, CellTiter-Glo 96 h, HL-60. To be noted: Homo sapiens, HL-60, read-out: Cytotoxic potency (IC50 class), HL-60.
Method: as §1, §2
The subject of experiment [5] is multiple myeloma cells (MM.1R). As to the kind of experiment: In vitro cytotoxicity, CellTiter-Glo 96 h, MM.1R. To be noted: read-out: Cytotoxic potency (IC50 class), MM.1R.
Method: as §1, §2
Experiment [6] concerns Burkitt's lymphoma cells (Ramos). Put plainly: In vitro cytotoxicity, CellTiter-Glo 96 h, Ramos. To be noted: Homo sapiens, read-out: Cytotoxic potency as free drug, IC50, Ramos.
Method: as §1, §3
Experiment [7] has as its system Hodgkin's lymphoma cells (L540cy). Put plainly: In vitro cytotoxicity, CellTiter-Glo 96 h, L540cy. To be noted: read-out: Cytotoxic potency (IC50 class), L540cy.
Method: as §1, §3
In experiment [8] the test system is acute myeloid leukemia cells (MOLM13). As to the kind of experiment: In vitro cytotoxicity, CellTiter-Glo 96 h, MOLM13. The conditions noted are these: Homo sapiens, MOLM-13, read-out: Cytotoxic potency as free drug, IC50, MOLM13.
Method: as §1, §3
The test system of experiment [9] is multiple drug resistant acute promyelocytic leukemia cells (HL-60/RV). Put plainly: In vitro cytotoxicity, CellTiter-Glo 96 h, HL60/RV. The conditions noted are these: Homo sapiens, HL-60, read-out: Cytotoxic potency (IC50 class), HL60/RV.
Method: as §1, §3
For experiment [10], the system named is melanoma cells (SK-MEL-5). As to the kind of experiment: In vitro cytotoxicity, CellTiter-Glo 96 h, SK-MEL-5. To be noted: Homo sapiens, SK-MEL-5, read-out: Cytotoxic potency as free drug, IC50, SK-MEL-5.
Method: as §1, §2
Experiment [11] has as its system B-lymphocyte cancer cells (SU-DHL-4). As to the kind of experiment: In vitro cytotoxicity, CellTiter-Glo 96 h, SU-DHL-4. The conditions noted are these: Homo sapiens, SU-DHL-4, read-out: Cytotoxic potency as free drug, IC50, SU-DHL-4.
Method: as §1, §2

Take `CC[C@@]1(O)C(=O)OCc2c1cc1n(c2=O)Cc2c-1nc1cc3c(cc1c2CN)OCO3` [Compound 4, 7-methylamino Derivative-methylenedioxy camptothecin]: the IC50 lay within 1 to 10 nM in experiment [1]; 1 to 10 nM in experiment [2]; 1 to 10 nM in [3]; 10 to 100 nM in experiment [4]; 1 to 10 nM in experiment [5]; 1 to 10 nM in experiment [6]. In addition, the IC50 in experiment [7] was 1 to 10 nM; in experiment [8] it was 1 to 10 nM; in experiment [9], 10 to 100 nM; in [10] it was 1 to 10 nM; in [11], 0.1 to 1 nM.

As for `CC[C@@]1(O)C(=O)OCc2c1cc1n(c2=O)Cc2c-1nc1cc3c(cc1c2CNC(=O)CO)OCO3` [Compound 4a], the IC50 lay within 1 to 10 nM in experiment [1]; 10 to 100 nM in [2]; 10 to 100 nM in [3]; 10 to 100 nM in [4]; 1 to 10 nM in [5]; 10 to 100 nM in experiment [6]. In addition, the IC50 lay in the range of 10 to 100 nM in experiment [7]; 1 to 10 nM in experiment [8]; 10 to 100 nM in experiment [9]; 1 to 10 nM in experiment [10]; 10 to 100 nM in experiment [11].

On to `CC[C@@]1(O)C(=O)OCc2c1cc1n(c2=O)Cc2c-1nc1cc3c(cc1c2CNC(=O)CN)OCO3` [Compound 4b], for which the IC50 in experiment [1] lay within 10 to 100 nM; in [2] it was 100 to 1000 nM; in experiment [3] it was 100 to 1000 nM; in experiment [4] it was 100 to 1000 nM; in experiment [5] it was 10 to 100 nM; in [6], 10 to 100 nM. Further, the IC50 fell in the range of 10 to 100 nM in experiment [7], 10 to 100 nM in experiment [8], 100 to 1000 nM in [10] and 10 to 100 nM in experiment [11].

Turning to `CC[C@@]1(O)C(=O)OCc2c1cc1n(c2=O)Cc2c-1nc1cc3c(cc1c2CN(C)C(=O)CN)OCO3` [Compound 4c], the IC50 in experiment [1] lay in the range of 10 to 100 nM; in experiment [2] it was 10 to 100 nM; in [3] it was 100 to 1000 nM; in experiment [4], 100 to 1000 nM; in experiment [5] it was 10 to 100 nM; in experiment [6] it was 1 to 10 nM. In addition, the IC50 in experiment [7] was in the range of 10 to 100 nM; in experiment [8], 1 to 10 nM; in experiment [9] it was 100 to 1000 nM; in experiment [10] it was 100 to 1000 nM; in [11], 10 to 100 nM.

With `CC[C@@]1(O)C(=O)OCc2c1cc1n(c2=O)Cc2c-1nc1cc3c(cc1c2CNC(=O)CCN)OCO3` [Compound 4d], the IC50 in experiment [1] lay in the range of 10 to 100 nM; in experiment [2], 100 to 1000 nM; in experiment [3] it was 100 to 1000 nM; in [4], 100 to 1000 nM; in experiment [5], 1 to 10 nM; in experiment [6] it was 10 to 100 nM. Besides, the IC50 in experiment [7] lay within 100 to 1000 nM; in experiment [8], 10 to 100 nM; in experiment [10] it was 10 to 100 nM; in experiment [11], 10 to 100 nM.

Consider `CC[C@@]1(O)C(=O)OCc2c1cc1n(c2=O)Cc2c-1nc1cc3c(cc1c2CNC(=O)[C@@H](N)CCC(=O)O)OCO3` [Compound 4e], for which the IC50 in experiment [3], in experiment [6], in experiment [7] and in [8] was 100 to 1000 nM in each case.

For `CC[C@@]1(O)C(=O)OCc2c1cc1n(c2=O)Cc2c-1nc1cc3c(cc1c2CNC)OCO3` [Compound 5], the IC50 in experiment [1] lay in the range of 1 to 10 nM; in experiment [2] it was 1 to 10 nM; in experiment [3], 10 to 100 nM; in experiment [4], 10 to 100 nM; in experiment [5], 1 to 10 nM; in experiment [6], 1 to 10 nM. The IC50 in [7] fell in the range of 1 to 10 nM; in experiment [8], 1 to 10 nM; in [9], 10 to 100 nM; in experiment [10], 1 to 10 nM; in [11], 1 to 10 nM.

On to `CCNCc1c2c(nc3cc4c(cc13)OCO4)-c1cc3c(c(=O)n1C2)COC(=O)[C@]3(O)CC` [Compound 5a], for which the IC50 is 1 to 10 nM in [1]; 1 to 10 nM in experiment [2]; 1 to 10 nM in experiment [3]; 10 to 100 nM in experiment [4]; 1 to 10 nM in [5]; 1 to 10 nM in [6]. The IC50 in experiment [7], in experiment [8], in [9], in [10] and in experiment [11] was 1 to 10 nM each time.

As to `CC[C@@]1(O)C(=O)OCc2c1cc1n(c2=O)Cc2c-1nc1cc3c(cc1c2CN(C)C1CCCC[C@H]1NC)OCO3` (stereo partly shown) [Compound 5aa], the IC50 is 10 to 100 nM in experiment [1]; 10 to 100 nM in experiment [2]; 100 to 1000 nM in experiment [3]; 100 to 1000 nM in [4]; 10 to 100 nM in experiment [5]; 1 to 10 nM in experiment [6]. The IC50 in experiment [7] was 10 to 100 nM; in [8], 10 to 100 nM; in experiment [9], 100 to 1000 nM; in experiment [10] it was 10 to 100 nM; in experiment [11], 10 to 100 nM.

Regarding `CC[C@@]1(O)C(=O)OCc2c1cc1n(c2=O)Cc2c-1nc1cc3c(cc1c2CNc1ccccc1)OCO3` [Compound 5b], the IC50 was in the range of 1 to 10 nM in [1]; 1 to 10 nM in [2]; 1 to 10 nM in [3]; 10 to 100 nM in experiment [4]; 1 to 10 nM in [5]; 0.1 to 1 nM in [6]. For the same compound, the IC50 in experiment [7] is 0.1 to 1 nM; in experiment [8], 10 to 100 nM; in [9], 1 to 10 nM; in experiment [10] it was 1 to 10 nM; in experiment [11] it was 0.1 to 1 nM.

With `CC[C@@]1(O)C(=O)OCc2c1cc1n(c2=O)Cc2c-1nc1cc3c(cc1c2CNC(C)C)OCO3` [Compound 5c], the IC50 in [1] fell in the range of 1 to 10 nM; in experiment [2], 1 to 10 nM; in [3], 1 to 10 nM; in [4], 1 to 10 nM; in experiment [5] it was 1 to 10 nM; in experiment [6] it was 0.1 to 1 nM. Moreover, the IC50 in experiment [7], in experiment [8], in experiment [9], in [10] and in experiment [11] was 1 to 10 nM each time.

On to `CC[C@@]1(O)C(=O)OCc2c1cc1n(c2=O)Cc2c-1nc1cc3c(cc1c2CNC1CCCCC1)OCO3` [Compound 5d], for which the IC50 in experiment [1] fell in the range of 1 to 10 nM; in experiment [2] it was 1 to 10 nM; in experiment [3], 1 to 10 nM; in experiment [4], 10 to 100 nM; in experiment [5], 1 to 10 nM; in experiment [6] it was 1 to 10 nM. In addition, the IC50 in [7], in [8], in experiment [9], in experiment [10] and in experiment [11] was 1 to 10 nM in each case.

In the case of `CC[C@@]1(O)C(=O)OCc2c1cc1n(c2=O)Cc2c-1nc1cc3c(cc1c2CNCCNC(C)C)OCO3` [Compound 5m], the IC50 is 10 to 100 nM in experiment [1]; 10 to 100 nM in [2]; 100 to 1000 nM in experiment [3]; 100 to 1000 nM in experiment [4]; 10 to 100 nM in experiment [5]; 1 to 10 nM in experiment [6]. For the same compound, the IC50 is 10 to 100 nM in [7], 10 to 100 nM in [8], 100 to 1000 nM in [10] and 10 to 100 nM in experiment [11].

Regarding `CC[C@@]1(O)C(=O)OCc2c1cc1n(c2=O)Cc2c-1nc1cc3c(cc1c2-c1ccc(F)cc1)OCO3` [Compound 6], the IC50 in experiment [1] fell in the range of 1 to 10 nM; in [2], 1 to 10 nM; in experiment [3] it was 1 to 10 nM; in experiment [5], 1 to 10 nM; in [6], 0.1 to 1 nM; in experiment [7], 0.1 to 1 nM. The IC50 in experiment [8] lay in the range of 0.1 to 1 nM; in experiment [9], 0.1 to 1 nM; in [10], 1 to 10 nM; in [11], 0.1 to 1 nM.

With `CCC(C)c1c2c(nc3cc4c(cc13)OCO4)-c1cc3c(c(=O)n1C2)COC(=O)[C@]3(O)CC` (stereo partly shown) [Compound 6b], the IC50 in experiment [1], in experiment [2], in [3], in [5], in experiment [6] and in experiment [7] was 1 to 10 nM throughout. In addition, the IC50 in experiment [8], in [9], in experiment [10] and in experiment [11] was 1 to 10 nM throughout.

Take `CC[C@@]1(O)C(=O)OCc2c1cc1n(c2=O)Cc2c-1nc1cc3c(cc1c2C(C)C)OCO3` [Compound 6c]: the IC50 in experiment [1] was in the range of 1 to 10 nM; in experiment [2], 1 to 10 nM; in [3], 1 to 10 nM; in experiment [5], 1 to 10 nM; in [6], 0.1 to 1 nM; in experiment [7], 1 to 10 nM. Besides, the IC50 in [8] lay within 1 to 10 nM; in experiment [9], 1 to 10 nM; in experiment [10], 1 to 10 nM; in experiment [11] it was 0.1 to 1 nM.
